From ChEMBL document CHEMBL3826968, “Glycine Transporter 1 Inhibitors and the Promise of a New Schizophrenia Therapy” (ACS Med Chem Lett, 2016) come the findings set out here.

The target in the experiment is T1, Sodium- and chloride-dependent glycine transporter 1 (Homo sapiens, UniProt P48067).
T1 sequence (P48067 whole entry): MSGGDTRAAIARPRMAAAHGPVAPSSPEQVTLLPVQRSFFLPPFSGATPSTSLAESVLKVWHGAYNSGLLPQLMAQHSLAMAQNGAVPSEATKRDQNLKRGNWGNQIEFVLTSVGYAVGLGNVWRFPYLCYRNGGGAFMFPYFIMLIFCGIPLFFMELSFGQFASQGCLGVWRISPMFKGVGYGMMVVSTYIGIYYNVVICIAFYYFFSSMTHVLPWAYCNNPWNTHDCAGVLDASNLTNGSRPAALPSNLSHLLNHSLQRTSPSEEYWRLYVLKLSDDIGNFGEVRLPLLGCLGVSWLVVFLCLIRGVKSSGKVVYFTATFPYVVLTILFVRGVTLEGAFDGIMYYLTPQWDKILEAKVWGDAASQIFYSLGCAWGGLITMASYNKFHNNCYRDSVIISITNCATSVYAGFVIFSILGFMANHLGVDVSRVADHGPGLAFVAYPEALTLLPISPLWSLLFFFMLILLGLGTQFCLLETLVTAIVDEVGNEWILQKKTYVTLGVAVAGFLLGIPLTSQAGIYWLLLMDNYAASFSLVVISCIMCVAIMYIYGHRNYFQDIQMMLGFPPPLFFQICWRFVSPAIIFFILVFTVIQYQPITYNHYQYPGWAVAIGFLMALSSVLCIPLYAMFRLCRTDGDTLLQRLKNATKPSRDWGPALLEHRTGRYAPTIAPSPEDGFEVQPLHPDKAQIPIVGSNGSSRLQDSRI
Briefly: Displacement of [3H](R)-NPTS or [3H]N-methyl-SSR504734 from recombinant human glycine transporter type-1 isoform C expressed in CHO cell membrane incubated for 1 hr by liquid scintillation spectrometry. The experiment is classed as cell membranes. In general terms: In a radioligand displacement assay an active substance lowers the binding of a labelled ligand.

Regarding `Cn1cc(S(=O)(=O)N2CC(c3ccc(F)cc3)C(c3cccc(C(F)(F)F)c3)=N2)nn1` (stereo not drawn), the Ki was at most 10 µM.

For `Cn1cnc(S(=O)(=O)N2CC(c3ccc(Cl)cc3)C(c3ccccc3)=N2)c1` (stereo not drawn), the Ki is at most 1 µM.

Take `Cn1cc(S(=O)(=O)N2CC(c3ccccc3)C(c3ccccn3)=N2)cn1` (stereo not drawn): the Ki is at least 10 µM.

For orientation: Ki means a dissociation constant, usually derived from enzyme kinetics or from competition with a known ligand.
